Tests used:
p21 = p21 CALUX assay (DNA damage response); type: cell-based, human; design: key: –: no effect observed up to the highest test concentration; details: cell signaling pathway assay, 24 h exposure
Excerpt: Six of the CALUX assays (TCF through p53) detect activation of several cellular signaling pathways, which are indicative of general stress and acute toxicity, but also a range of more specific types of toxicity, including reproductive toxicity. […]
DCM ≥99.5%, chloroform ≥99.5%, DMSO ≥99.0% were purchased from VWR. […]
(§1) Polyarylethersulfone of 55,000 Da were obtained from INGE.BASF, Germany. The CALUX cell lines have been described previously.[1] They are based on human U2-OS cells (ATCC, HTB-96) stably transfected with an expression construct for the full-length human receptor under investigation, and a reporter construct consisting of multimerized responsive elements for the cognate receptor coupled to a minimal promoter element (TATA) and a luciferase gene. Cells were maintained as described previously,[2] using cell culture media and supplements from Fisher Scientific as described in the experimental procedures section. […]
(§2) In vitro reporter gene assays
(§3) The automated CALUX assays were carried out similarly as described earlier,[12] with some adaptations. In brief, the assay was performed in CO2 independent medium (Fisher Scientific, […]
(§4) supplement (Fisher Scientific, 11574466), 10 U/mL penicillin and 10 µg/mL streptomycin. A cell suspension in assay medium was made of 1 × 10^5cells/mL, and white 384-wells plates were seeded with 30 µl cell suspension/well. After 24 h, exposure medium was prepared. A dilution series in 0.5log unit increments of each test compound (in DMSO) was added to a 96-wells plate containing assay medium (2% v/v). Of this exposure mixture, 30 µl was added to the assay plates containing the CALUX cells, resulting in a final DMSO concentration of 1%. Additionally, DMSO blanks and a full dose response curve of the relevant reference compound were included on each plate. All samples were tested in triplicate. The preparation of the compound dilution series as well as the exposure of the cells were performed on a Hamilton StarLET liquid handling robot coupled to a Cytomat incubator.
(§5) Directly after exposure, plates were sealed with non-breathing plate seals (Plate sealer, easy seal transparent; Greiner-Bio-One, 676001). After 24 h the exposure medium was removed using an EL406 washer-dispenser (BioTek) and 10 µl/well triton lysisbuffer was added by the EL406.
(§6) Subsequently, the luciferase signal was measured in a luminometer (InfinitePro coupled to a Connect Stacker, both TECAN). In order to be able to detect receptor antagonism, several assays were also performed in antagonistic mode. The assay procedure was as described above, with the only exception that the EC50 concentration of the reference agonist was present during the exposure.
The luminometer data was analysed as follows; the average of the triplicate wells was determined, and the average blank (DMSO) value was subtracted. For receptor-based assays the maximum response elicited by the reference compound was set to 100% (full receptor- or pathway activation), and the other values were scaled accordingly. GraphPad Prism was used to fit a sigmoidal curve through the data (four parameters, variable slope). […] For antagonist- and cytotoxicity experiments, PC20 values were determined instead, which was defined as the concentration where the test compound causes a 20% decrease in the basal signal, which was […]
(§7) curve, the signal induction above background (DMSO) was determined, and the concentration where the compound elicited a 1.5-fold increase above background was used as LEC.

PR = target: T1, PR (Homo sapiens, UniProt P06401); assay: PR-anti CALUX reporter gene assay (antagonistic mode); type: cell-based; design: key: –: no effect observed up to the highest test concentration; details: PC20, 24 h exposure
T1 construct: expression construct for the full-length human receptor under investigation; expressed in transfected cells; host or cells: human U2-OS cells (ATCC HTB-96), stably transfected
T1 sequence (P06401 1-933): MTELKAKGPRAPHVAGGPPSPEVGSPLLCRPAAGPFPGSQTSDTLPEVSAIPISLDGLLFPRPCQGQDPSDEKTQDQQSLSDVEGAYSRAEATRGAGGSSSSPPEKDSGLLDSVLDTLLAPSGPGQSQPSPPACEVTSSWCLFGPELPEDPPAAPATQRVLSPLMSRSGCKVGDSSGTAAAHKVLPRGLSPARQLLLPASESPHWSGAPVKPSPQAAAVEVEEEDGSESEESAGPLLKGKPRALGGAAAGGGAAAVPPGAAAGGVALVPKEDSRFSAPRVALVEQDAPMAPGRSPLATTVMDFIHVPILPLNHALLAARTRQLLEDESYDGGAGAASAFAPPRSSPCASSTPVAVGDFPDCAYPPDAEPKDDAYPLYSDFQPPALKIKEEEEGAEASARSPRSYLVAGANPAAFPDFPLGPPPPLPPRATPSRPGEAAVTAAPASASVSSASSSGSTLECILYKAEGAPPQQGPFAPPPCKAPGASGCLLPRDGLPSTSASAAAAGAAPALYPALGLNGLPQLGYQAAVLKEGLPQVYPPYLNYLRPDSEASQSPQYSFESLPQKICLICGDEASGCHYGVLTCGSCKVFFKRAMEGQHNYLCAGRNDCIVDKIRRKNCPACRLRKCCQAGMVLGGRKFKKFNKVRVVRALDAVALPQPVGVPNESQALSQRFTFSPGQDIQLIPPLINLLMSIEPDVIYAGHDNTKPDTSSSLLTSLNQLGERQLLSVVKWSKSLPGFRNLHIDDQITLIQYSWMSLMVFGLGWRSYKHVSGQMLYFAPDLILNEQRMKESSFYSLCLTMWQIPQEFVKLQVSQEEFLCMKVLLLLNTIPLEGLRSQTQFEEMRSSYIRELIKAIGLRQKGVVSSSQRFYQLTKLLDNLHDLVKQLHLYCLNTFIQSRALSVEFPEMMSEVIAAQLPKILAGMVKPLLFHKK
Excerpt: as §1, with “99.8% (anhydrous), 4-nitroaniline ≥99.0%, 1-octanol ≥99.0%, diglyme ≥99.0%, DMSO-d6 (99.8% D) and chloroform-d (99.8% D) were purchased from Sigma-Aldrich. Toluene ≥99.0%, hexane ≥99.5%, DCM ≥99.5%, chloroform ≥99.5%, DMSO ≥99.0% were purchased from VWR. N,N-diethyl-4-nitroaniline ≥98.0% was purchased from Alfa Aeser. Cyrene was supplied by Circa group. N-butylpyrrolidinone was supplied by Eastman chemicals. N,N-dimethylformamide 99.9% and N,N-dimethylacetamide 99.9% were purchased from Fischer. The flakes of Ultrason® E3020 P Polyarylethersulfone” for “Polyarylethersulfone”
as §2, §3, §4, §5, §6
The luminometer data was analysed as follows; the average of the triplicate wells was determined, and the average blank (DMSO) value was subtracted. […] For antagonist- and cytotoxicity experiments, PC20 values were determined instead, which was defined as the concentration where the test compound causes a 20% decrease in the basal signal, which was […]
as §7

SMILES | LEC p21 (p21) | LEC PR‐anti (PR)
CCCCN(CCCC)C(=O)CCC(=O)N(CCCC)CCCC [TBSA, N,N,N′,N′‐tetrabutylsuccindiamide] | – | –
CCCCN1CCCC1=O [NBP, N‐Butylpyrrolidinone, reference compound] | – | –
CN1CCCC1=O [NMP, N‐methyl‐2‐pyrrolidone, reference compound] | −2.0 Log M | –
CCCCN(CC)C(=O)CCC(=O)N(CC)CCCC [EBSA, N,N′‐diethyl‐N,N′‐dibutylsuccindiamide] | – | –
CCCCN(C)C(=O)CCC(=O)N(C)CCCC [MBSA, N,N′‐dimethyl‐N,N′‐dibutylsuccindiamide] | – | –

Source: publication PMC7318222, “A Family of Water‐Immiscible, Dipolar Aprotic, Diamide Solvents from Succinic Acid” (Chemsuschem, 2020)
